Laboratory results: patent US20260256756A1, “USE OF PIPERIDINE ALKENE COMPOUND IN PREPARATION OF DRUG FOR TREATING CANCER” (JIANGSU HANSOH PHARMACEUTICAL GROUP CO., LTD., priority 2023, published 2026)

Tests used:
PSN-1 cells = assay: In vitro proliferation inhibition (CellTiter-Glo), PSN-1; format: cell-based; details: Homo sapiens, PSN1; PSN-1, pancreatic cancer, HRD-positive (low expression of MRE11A/CHEK2 protein); 6-10 days culture
Text: […]
Experimental data processing method: The luminescence signal value was used to calculate the inhibition rate. […]

[1] = test system: human breast cancer cell line MX-1 xenograft tumor; assay: Subcutaneous xenograft tumor model of human breast cancer cell line MX-1; format: in vivo, BALB/c nude mice
Text: • 1. Experimental objective: To evaluate the in vivo efficacy of the compound in a subcutaneous xenograft tumor model of human breast cancer cell line MX-1 in nude mice. • 2. Reagent • RPMI-1640 medium (22400-089, Gibco), fetal bovine serum (FBS) (10099-141C, Gibco) • Phosphate buffer (PBS, 10010-023, Gibco), HPMC (D180HB4005, Shanghai Colorcon Coating Technology Ltd.) • 0.25% Trypsin-EDTA (25200-056, Gibco), Pen Strep (P/S) (15140-122, Gibco) • 3. Experimental operations and data processing • 3.1 Animals: BALB/c nude mice, 8-12 weeks old, female, purchased from the Laboratory Animal Business Department of Shanghai Institute of Planned Parenthood Research. • 3.2 Cell culture and cell suspension preparation • a. A vial of MX-1 cells was taken from a cell bank, the cells were thawed with RPMI-1640 medium (RPMI-1640+10% FBS), and the thawed cells were placed in a cell culture flask (with the cell type, date, the name of the culture operator, etc., being marked on the wall of the flask), which were placed in a CO2 incubator for culturing (wherein the temperature of the incubator was 37° C., and the CO2 concentration was 5%). • b. The cells were passaged every three days, and after passage, the cells were placed in the CO2 incubator to continue the culture. This process was repeated until the cell number met the requirements for in vivo efficacy. • c. The cultured cells were collected, counted using a full-automatic cell counter, and resuspended with PBS on the basis of the counting results to prepare a cell suspension (at a density of 3×10^7/mL), which was then placed in an ice box for later use. • 3.3 Cell inoculation • a. Before inoculation, the nude mice were marked with disposable universal ear tags for mice and rats. • b. At the time of inoculation, the cell suspension was mixed uniformly, 0.1-1 mL of the cell suspension was aspirated using a 1 mL syringe with air bubbles expelled, and the syringe was then placed on an ice bag for later use. • c. The nude mouse was secured with the left hand, the right dorsal area near the right shoulder (inoculation site) of the nude mouse was disinfected with a 75% alcohol cotton ball, and inoculation was initiated after 30 seconds. • d. The experimental nude mice were inoculated sequentially (0.1 mL of cell suspension per mouse). • 3.4 Tumor measurement, grouping and administration in tumor-bearing mice • a. Tumor was measured on days 10-18 after inoculation depending on the tumor growth, and the tumor size was calculated.
tumor volume (mm^3)=length (mm)×width (mm)×width (mm)/2 Tumor volume calculation: • b. According to the body weight of tumor-bearing mice and the size of the tumor, the mice were grouped by random grouping. • c. According to the grouping results, the test drug was started to be administered (administration method: oral administration; administration volume: 10 mL/kg; administration frequency: once/day; administration cycle: 21 days; vehicle: 0.5% HPMC). • d. Tumor measurement and weighing were performed twice a week after starting administration of test drugs. • e. The animals were euthanized at the end of the experiment. • f. Data processing was performed using software such as GraphPad Prism. The tumor inhibitory efficacy of the compound was evaluated by TGI (%) and ΔT/ΔC (%). ΔT/ΔC (%)=(T−T0)/(C−C0)×100, where T and C are the tumor volumes of the treatment group and the vehicle control group at the end of the experiment, respectively, and T0 and C0 are the tumor volumes of the treatment group and the vehicle control group at the beginning of the experiment, respectively. Tumor growth inhibition (TGI) (%)=100−ΔT/ΔC (%). Tumor growth inhibition (TGI) (%)=100−(T−T0)/T0×100 when tumor regression occurs • 4. Experimental conclusion

[2] = MX-1, 3 mg/kg oral once/day, Day 21
[3] = MX-1, 100 mg/kg oral once/day, Day 21

SMILES | IC50 (PSN-1 cells) [nM] | Tumor volume (Mean ± SEM) ([1]; MX-1, 3 mg/kg oral once/day, Day 0) [mm^3] | T/C [1, 2] [%] | TGI [1, 2] [%] | Tumor volume (Mean ± SEM) [1, 2] [mm^3] | Tumor volume (Mean ± SEM) ([1]; MX-1, 100 mg/kg oral once/day, Day 0) [mm^3] | T/C [1, 3] [%] | TGI [1, 3] [%] | Tumor volume (Mean ± SEM) [1, 3] [mm^3]
CCc1cc2ncc(CN3CCN(c4ccc(C(=O)NC)nc4)CC3)cc2[nH]c1=O [AZD5305] | 2.1 ± 0.5 | 122 ± 17 | 34.13 | 70.43 | 642 ± 132 |  |  |  | 
O=C(c1cc(Cc2n[nH]c(=O)c3ccccc23)ccc1F)N1CCN(C(=O)C2CC2)CC1 [Olaparib] | 65 ± 19 |  |  |  |  | 122 ± 14 | 88.08 | 12.73 | 1656 ± 289
